Data set [1] is described as follows: Standard acute toxicity test. Format: in vivo. The conditions noted are these: at the utilized doses (1 or 100 μg per animal); data not shown.
The test system of the next data set is E. coli ML-35p. Kind of data set: Broth microdilution assay (MIC). The conditions noted are these: 50% MH broth/50% 10 mM Na-P buffer pH 7.4 with 0.1% BSA, 1×10^6 CFU/ml, 20 h, median of 3–6 independent experiments in triplicate. Format: cell-based, Escherichia coli. As to the method:
The minimal inhibitory concentrations (MIC) of peptides were determined using microdilution assay in Müller–Hinton (MH) broth in general accordance with the guidelines of the European Committee for Antimicrobial Susceptibility Testing. Test plates were additionally pretreated with 0.1% bovine serum albumin (BSA) in distilled H2O (incubated for 1 h at 37°C) to reduce possible non-specific binding of peptides to the plastic surface of the wells, as proposed for AMP activity measuring ([Tossi et al., 1997]; [Wiegand et al., 2008]). Two-fold serial dilutions of peptides starting with 2 × stock concentration were prepared in sterile 10 mM sodium phosphate (Na-P) buffer, pH 7.4, with 0.1% BSA. Thus, final solutions contained 50% of Na-P diluted peptide and 50% of MH broth with bacteria. Bacteria for testing were grown overnight, then transferred into a fresh portion of 2.1% MH medium and additionally incubated for 2–3 h to obtain bacterial culture in its mid-logarithmic growth phase, which was diluted down to the final concentration of 1 × 10^6 CFU/ml. Concentration of bacteria in growth medium was calculated based on its absorbance at 620 nm.
After 20 h of incubation of AMPs with bacteria MICs were determined as lowest concentrations of AMPs completely preventing the visible growth of bacteria. Tests were performed in 60-well Terasaki microplates (10 µl end volume, V-shaped bottom; Sarstedt, Germany); dilutions in each test were made in triplicate. Final MIC values were calculated as medians based on the results of 3–5 independent experiments.
(In general: Dilution methods test growth across graded concentrations, often in twofold steps.)

Data set [2] relates to K562 cells. The data set can be described thus: Annexin V-Cy3 apoptosis detection assay. The data set is classed as cell-based, human. The conditions noted are these: K562, 2 h incubation with peptide, Annexin-Cy3.18/6-CFDA staining. The source says: Annexin V-Cy3 Apoptosis Detection kit (Sigma, USA) was used to distinguish between cells dying via necrosis and cells entering apoptosis. This kit includes a combination of red and green fluorescent dyes; 6-Carboxyfluorescein diacetate (6-CFDA) is hydrolyzed by esterases inside viable (still functional) cells, producing the green fluorescent compound 6-carboxyfluorescein. Annexin-Cy3.18, giving red fluorescence, binds to phosphatidylserine which only becomes exposed in the outer leaflet of the plasma membrane for cells entering the apoptotic process, or if the plasma membrane is damaged during necrosis. Thus, living cells are only stained green, necrotic ones are only stained red, while cells in the early stages of apoptosis are stained by both dyes.
To assess the effects of the peptides, cells were incubated in their presence for 2 h under the same conditions as described for trypan blue assay. […] After 10 min incubation at room temperature cells were washed from excess dyes with 1 × binding buffer and analyzed under the luminescent microscope (Leica DM2500, Leica Microsystems, Germany). […] The resulting percentage of viable, apoptotic, and necrotic cells are shown as mean with SD, calculated based on three independent experiments.

The test system of data set [3] is K562 cells. Kind of data set: Trypan blue dye exclusion assay. The data set is classed as cell-based, human. The conditions noted are these: K562, 1×10^6 cells/ml, serum-free RPMI-1640, first 3 h of incubation. On the procedure:
Living cells exclude the dye, so that their cytoplasm remains clear. When damaged cells take up the dye, it binds to intracellular proteins and renders them a blue color. Cells suspended to a concentration of 1 × 10^6 per ml in RPMI-1640 medium (serum-free) were incubated with various concentrations of the peptides of interest for various periods of time at 37°C and 5% CO2. Then they were stained with 0.2% trypan blue dye solution in PBS for 3 min at room temperature, and dead and living cells were counted using a hemocytometer. Percentage of viable cells was calculated as follows:
(3) Viable cells (%) =total number of viable cells/total number of cells×100%,
Experiments were repeated three times before plotting time-killing curves. For each time point, data are presented as mean with standard deviation (SD).

Bridge positions count the residues as written; N and C are the ends. Ends that are not written are not given here.

The MIC is the lowest concentration that inhibits growth of the organism.

Regarding “RFRLPFRRIHPPPFVRIHPPPFYRRFL [ChBac3.4-1-COOH]”, the “Toxic action in acute toxicity test” value in data set [1] was “no visible signs of toxic action”. In addition, the minimum inhibitory concentration (MIC) in the data set with E. coli ML-35p lay within 2 to 4 µM.

As to “protegrin 1 (RGGRLCYCRRRFCVCVGR-NH2; disulfide 8-13, 6-15; ends not checked; UniProt P32194 131-148, looked up) [PG-1]”, the “Apoptosis versus necrosis” value in the data set on K562 cells [2] is reported as “prominent, dose-dependent prevalence of necrosis over apoptosis”. Also, the “Dynamics of cytocidal action” value in the data set with K562 cells [3] was “swift and pronounced effect, observable in the first 30 min of exposure”.

(Values after PMC7604311, “Caprine Bactenecins as Promising Tools for Developing New Antimicrobial and Antitumor Drugs” (Frontiers in Cellular and Infection Microbiology, 2020).)
